This note sets out measurements from ChEMBL document CHEMBL1201862, “PubChem BioAssay data set” (2004).

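Step 1: Grow cells in 96-well plates. Step 2: Expose to compound for 48 hours at 5 concentrations. Step 3: Interpolate endpoints linearly; if unreached, use highest concentration. Here, GI50 denotes the concentration required for 50% inhibition of growth.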 Activity calls are given as the source filed them. Rule as the data show it: active = GI50 up to about 1.1 µM and inactive = higher.

Experiment in all cases: DTP human tumour cell line panel, 48 h
Experiment [1] concerns A498.
Experiment [2] relates to ACHN.
Experiment [3] concerns BT-549.
The test system of experiment [4] is COLO 205.
Experiment [5] deals with DU-145.
Experiment [6] concerns HCT-116.
Experiment [7] relates to HCT-15.
The subject of experiment [8] is HOP-92.
Experiment [9] deals with KM12.
The subject of experiment [10] is MCF7.
Experiment [11] has as its system NCI-H23.
Experiment [12] concerns NCI-H460.
Experiment [13] concerns NCI-H522.
In experiment [14] the test system is OVCAR-4.
Experiment [15] concerns PC-3.
Experiment [16] deals with SK-MEL-5.
Experiment [17] has as its system SNB-75.
Experiment [18] relates to SW-620.
In experiment [19] the test system is T47D.
In experiment [20] the test system is UACC-257.

A word on the GI50: it is the concentration that inhibits growth by half. Regarding `COc1cc(C(=O)O)ccc1OS(=O)(=O)O`, the GI50 was > 10 µM (inactive) in experiment [1]; > 100 µM (inactive) in experiment [2]; > 100 µM (inactive) in experiment [3]; > 100 µM (inactive) in experiment [4]; > 100 µM (inactive) in experiment [5]; > 100 µM (inactive) in [6]. Further, the GI50 in experiment [7] is more than 100 µM; in experiment [8] it was > 100 µM (inactive); in experiment [9], > 100 µM (inactive); in [10], > 100 µM (inactive); in experiment [11], > 100 µM (inactive); in experiment [12], > 100 µM (inactive). Further, the GI50 in [13], in [14], in [15], in experiment [16], in experiment [17] and in experiment [18] was > 100 µM (inactive) throughout. The GI50 in experiment [19] and in [20] was > 100 µM (inactive) throughout.

As to `Clc1nncc2sc(-c3ccccc3)nc12`, the GI50 in experiment [1] is 40.6 µM (inactive); in experiment [2], 26.9 µM (inactive); in [3] it was 13.9 µM (inactive); in experiment [4], 29.2 µM (inactive); in experiment [5], 6.62 µM (inactive); in experiment [6], 16.9 µM (inactive). Further, the concentration for 50% growth inhibition (GI50) in experiment [7] was 7 µM; in [8] it was 5.06 µM (inactive); in experiment [9], 28.9 µM (inactive); in experiment [10], 25.5 µM (inactive); in experiment [11], 17.5 µM (inactive); in [12], 16.8 µM (inactive). The GI50 is 8.73 µM (inactive) in experiment [13]; 18.4 µM (inactive) in [14]; 17.6 µM (inactive) in experiment [15]; 15.6 µM (inactive) in experiment [16]; 15.9 µM (inactive) in experiment [17]; 21 µM (inactive) in experiment [18]. The results for the GI50 in experiment [19] and in [20] were 28.5 µM (inactive) and 18.3 µM (inactive), respectively.

Consider `c1ccc(C2=NOC(c3ccccc3)N2C23CC4CC(CC(C4)C2)C3)cc1` (stereo not given), for which the GI50 in experiment [1], in experiment [2], in experiment [3], in [4], in experiment [5] and in [6] was > 10 µM (inactive) each time. Besides, the GI50 in [7] was more than 10 µM; in [8], > 10 µM (inactive); in [9] it was > 10 µM (inactive); in experiment [10], 5.82 µM (inactive); in [11] it was > 10 µM (inactive); in [12], > 10 µM (inactive). In addition, the GI50 is > 10 µM (inactive) in experiment [13]; > 10 µM (inactive) in experiment [14]; > 10 µM (inactive) in experiment [15]; > 10 µM (inactive) in experiment [16]; 5.19 µM (inactive) in experiment [17]; > 10 µM (inactive) in experiment [18]. Besides, the GI50 is > 10 µM (inactive) in experiment [19] and 9.73 µM (inactive) in [20].

Take `O=[N+]([O-])O` [NITRIC ACID]: the GI50 in [1], in experiment [2], in experiment [3], in experiment [4], in experiment [5] and in experiment [6] was > 100 µM (inactive) in each case. Besides, the GI50 in experiment [7] is more than 100 µM; in experiment [8], > 100 µM (inactive); in experiment [9], > 100 µM (inactive); in [10], > 100 µM (inactive); in experiment [11] it was > 100 µM (inactive); in experiment [12], > 100 µM (inactive). The GI50 in experiment [13], in [14], in experiment [15], in experiment [16], in experiment [17] and in [18] was > 100 µM (inactive) each time. Further, the GI50 in experiment [19] and in experiment [20] was > 100 µM (inactive) throughout.

Consider `Cc1ccnc2[nH]c(-c3ccccc3)cc(=O)c12`, for which the GI50 in experiment [1] was > 10 µM (inactive); in experiment [2] it was 0.0458 µM (active); in [3], 19 µM (inactive); in [4], 0.0039 µM (active); in [5] it was 0.0313 µM (active); in experiment [6], 0.00396 µM (active). The GI50 is 0.00485 µM in [7]; 0.0524 µM (active) in experiment [8]; 0.00705 µM (active) in experiment [9]; 0.0398 µM (active) in [10]; 0.0297 µM (active) in experiment [11]; 0.00682 µM (active) in experiment [12]. Further, the 50% growth inhibitory concentration (GI50) in [13] is 0.00838 µM (active); in [14], 68.7 µM (inactive); in experiment [15], 0.00548 µM (active); in experiment [16], 0.00387 µM (active); in [17] it was 0.00621 µM (active); in experiment [18] it was 0.00421 µM (active). Besides, the values for the GI50 in [19] and in experiment [20] were 42.5 µM (inactive) and 0.0113 µM (active), respectively.

Regarding `Cc1nccn1S(=O)(=O)c1ccc(Br)cc1Br`, the GI50 is 35.9 µM (inactive) in experiment [1]; 54.1 µM (inactive) in experiment [2]; 56.2 µM (inactive) in experiment [3]; 18.6 µM (inactive) in [4]; 42.9 µM (inactive) in experiment [5]; 31.6 µM (inactive) in [6]. In addition, the GI50 in experiment [7] was 28.4 µM; in experiment [8], 26.7 µM (inactive); in [9] it was 27.7 µM (inactive); in experiment [10] it was 37.5 µM (inactive); in experiment [11] it was 36.1 µM (inactive); in experiment [12], 38.4 µM (inactive). Also, the GI50 in experiment [13] was 25.7 µM (inactive); in experiment [14], 29.5 µM (inactive); in experiment [15], 33 µM (inactive); in experiment [16], 19.9 µM (inactive); in experiment [17], 12.5 µM (inactive); in experiment [18], 28.5 µM (inactive). For the same compound, the GI50 in [19] was 22.6 µM (inactive); in experiment [20], 34.9 µM (inactive).

As for `c1cc(NNc2cccc(-c3nnn[nH]3)c2)cc(-c2nnn[nH]2)c1`, the GI50 in [1], in experiment [2], in experiment [3], in experiment [4], in [5] and in experiment [6] was > 100 µM (inactive) throughout. The GI50 in experiment [7] is more than 100 µM; in experiment [8] it was > 100 µM (inactive); in experiment [9], > 100 µM (inactive); in experiment [10], > 100 µM (inactive); in [11], > 100 µM (inactive); in experiment [12] it was > 100 µM (inactive). Further, the GI50 in [13], in experiment [14], in experiment [15], in experiment [16], in experiment [17] and in [18] was > 100 µM (inactive) in each case. The GI50 in experiment [19] and in [20] was > 100 µM (inactive) throughout.

Turning to `CC(=O)c1cc2c(s1)C(=O)c1scc(C(C)=O)c1C2=O`, the GI50 was 2.34 µM (inactive) in experiment [1]; 0.248 µM (active) in [2]; 1.12 µM (active) in experiment [3]; 1.97 µM (inactive) in experiment [4]; 1.52 µM (inactive) in experiment [5]; 0.293 µM (active) in [6]. Also, the GI50 was 0.308 µM in experiment [7]; 0.318 µM (active) in [8]; 1.39 µM (inactive) in [9]; 0.163 µM (active) in [10]; 0.432 µM (active) in experiment [11]; 0.345 µM (active) in experiment [12]. The GI50 in [13] is 0.378 µM (active); in [14], 0.197 µM (active); in [15], 0.605 µM (active); in experiment [16], 0.327 µM (active); in experiment [17] it was 0.598 µM (active); in experiment [18], 0.394 µM (active). Further, the GI50 in experiment [19] was 0.254 µM (active); in experiment [20], 0.223 µM (active).
